The first experiment relates to Respiratory Syncytial Virus. Nature of the experiment: microbe, parasite or virus in culture. The format is cell-based. The following applies: RSV-infected HeLa cells, MTT readout seven days after infection; −log of EC50 in molar units. An excerpt: In vitro Screening for Activity against Respiratory Syncytial Virus.
The percent protection against cytopathology caused by viruses (antiviral activity or EC50) achieved by tested compounds and their cytotoxicity (CC50) are both calculated from dose-response curves. The selectivity of the antiviral effect is represented by the selectivity index (SI), calculated by dividing the CC50 (cytotoxic dose for 50% of the cells) by the EC50 (antiviral activity for 50% of the cells).
Automated tetrazolium-based colorimetric assays were used for determination of EC50 and CC50 of test compounds. Flat-bottom, 96-well plastic microtiter trays were filled with 180 μl of Eagle's Basal Medium, supplemented with 5% FCS (0% for FLU) and 20 mM Hepes buffer. Subsequently, stock solutions (7.8× final test concentration) of compounds were added in 45 μl volumes to a series of triplicate wells so as to allow simultaneous evaluation of their effects on virus- and mock-infected cells. Five five-fold dilutions were made directly in the microtiter trays using a robot system. Untreated virus controls, and HeLa cell controls were included in each test. Approximately 100 TCID50 of Respiratory Syncytial Virus was added to two of the three rows in a volume of 50 μl. The same volume of medium was added to the third row to measure the cytotoxicity of the compounds at the same concentrations as those used to measure the antiviral activity. After two hours of incubation, a suspension (4×10^5 cells/ml) of HeLa cells was added to all wells in a volume of 50 μl. The cultures were incubated at 37° C. in a 5% CO2 atmosphere. Seven days after infection the cytotoxicity and the antiviral activity was examined spectrophotometrically. To each well of the microtiter tray, 25 μl of a solution of MTT (3-(4,5-dimethylthiazol-2-yl)-2,5-diphenyltetrazolium bromide) was added. The trays were further incubated at 37° C. for 2 hours, after which the medium was removed from each cup. Solubilization of the formazan crystals was achieved by adding 100 μl 2-propanol. Complete dissolution of the formazan crystals were obtained after the trays have been placed on a plate shaker for 10 min. Finally, the absorbances were read in an eight-channel computer-controlled photometer (Multiskan MCC, Flow Laboratories) at two wavelengths (540 and 690 nm). The absorbance measured at 690 nm was automatically subtracted from the absorbance at 540 nm, so as to eliminate the effects of non-specific absorption.
`Cc1ccc(O)c(Cn2c(NCCCN3CCOCC3)nc3ccc(CN(CCO)c4ccccc4CCO)cc32)n1` [Compound 107] showed an Activity of 8.1.

`Cc1ccc(O)c(Cn2c(NCCCN3CCOCC3)nc3ccc(CNc4cccc(OC(F)(F)F)c4)cc32)n1` [Compound 36]: the Activity was found to be 8.5.

Compound `Cc1ccc(O)c(Cn2c(NCCCN3CC(C)OC(C)C3)nc3ccc(CO)cc32)n1` (centres unmarked) [Compound 177] returned an Activity of 5.7.

`Cc1ccc(O)c(Cn2c(NCCCN3CCOCC3)nc3ccc(CNc4ccc(S(N)(=O)=O)cc4)cc32)n1` [Compound 37]: the Activity is listed as 8.5.

Regarding `Cc1cccc(N(CCN(C)C)Cc2ccc3nc(NCCCN4CCOCC4)n(Cc4nc(C)ccc4O)c3c2)c1` [Compound 100], the Activity amounted to 8.4.

With `Cc1ccc(O)c(Cn2c(NCCCN3CCOCC3)nc3ccc(CNc4cccc(C)c4CO)cc32)n1` [Compound 43], the Activity worked out at 8.2.

`C#Cc1cccc(N(CCO)Cc2ccc3nc(NCCCN4CCOCC4)n(Cc4nc(C)ccc4O)c3c2)c1` [Compound 99]: the Activity was found to be 8.5.

As to `Cc1ccc(O)c(Cn2c(NCCCN3CCOCC3)nc3ccc(CNc4ccccc4CCN4CCOCC4)cc32)n1` [Compound 42], the Activity was found to be 8.3.

`Cc1ccc(C=CCO)c(NCc2ccc3nc(NCCCN4CCOCC4)n(Cc4nc(C)ccc4O)c3c2)c1` [Compound 19] returned an Activity of 9.3.

`Cc1ccc(O)c(Cn2c(NCCCN3CCOCC3)nc3ccc(CN(CCN4CCOCC4)c4ccccc4CCO)cc32)n1` [Compound 103] gave an Activity of 8.2.

The compound `C#Cc1cccc(NCc2ccc3nc(NCCCN4CCOCC4)n(Cc4nc(C)ccc4O)c3c2)c1` [Compound 30] registered an Activity of 8.6.

`Cc1ccc(O)c(Cn2c(NCCCN3CCOCC3)nc3ccc(CNc4ccccc4CN)cc32)n1` [Compound 108]: the Activity is on record as 8.

In the case of `Cc1cccc(NCc2ccc3nc(NC4CCN(CCN5CCOCC5)CC4)n(Cc4nc(C)ccc4O)c3c2)c1` [Compound 164], the Activity turned out to be 7.5.

Compound `Cc1ccc(OCCO)c(NCc2ccc3nc(NCCCN4CCOCC4)n(Cc4nc(C)ccc4O)c3c2)c1` [Compound 5] showed an Activity of 9.8.

`Cc1ccc(O)c(Cn2c(NCCCN3CCOCC3)nc3ccc(CNc4cccc(Br)c4)cc32)n1` [Compound 26] gave an Activity of 8.7.

`Cc1ccc(O)c(Cn2c(NCCCN3CCOCC3)nc3ccc(CN(CC(N)=O)c4ccccc4CCO)cc32)n1` [Compound 101]: the Activity amounted to 8.3.

The compound `COc1ccc(CCCO)c(NCc2ccc3nc(NCCCN4CCOCC4)n(Cc4nc(C)ccc4O)c3c2)c1` [Compound 14] yielded an Activity of 9.4.

`Cc1ccc(O)c(Cn2c(NCCCN3CCOCC3)nc3ccc(CNc4cccc(F)c4)cc32)n1` [Compound 35] displayed an Activity of 8.5.

Compound `C#Cc1ccc(CCO)c(NCc2ccc3nc(NCCCN4CCOCC4)n(Cc4nc(C)ccc4O)c3c2)c1` [Compound 10] gave an Activity of 9.6.

Take `Cc1ccc(O)c(Cn2c(NCCCN3CCOCC3)nc3ccc(CNc4ccccc4CO)cc32)n1` [Compound 29]: the Activity is on record as 8.6.

In turn, `Cc1ccc(O)c(Cn2c(NCCCN3CCSCC3)nc3ccc(CO)cc32)n1` [Compound 182] gave an Activity of 7.1.

For `Cc1cc(C)cc(N(Cc2ccc3nc(NCCCN4CCOCC4)n(Cc4nc(C)ccc4O)c3c2)Cc2c[nH]cn2)c1` [Compound 81], the Activity is on record as 8.9.

In turn, `Cc1ccc(O)c(Cn2c(NCCCN3CCOCC3)nc3ccc(CNc4ccccc4CCC(N)=O)cc32)n1` [Compound 33] came in with an Activity of 8.6.

`Cc1ccc(O)c(Cn2c(NCCCN3CCOCC3)nc3ccc(CN(CCCO)c4cccc(Br)c4)cc32)n1` [Compound 95] showed an Activity of 8.6.

In the case of `Cc1ccc(C#CCO)c(NCc2ccc3nc(NCCCN4CCOCC4)n(Cc4nc(C)ccc4O)c3c2)c1` [Compound 34, 2-[6-{[2-(3-Hydroxy-prop-1-ynyl)-5-methyl-phenylamino]-methyl}-2-(3-morpholin-4-yl-propylamino)-benzoimidazol-1-ylmethyl]-6-methyl-pyridin-3-ol], the Activity was 8.6.

As to `Cc1cccc(N(CCCO)Cc2ccc3nc(NCCCN4CCOCC4)n(Cc4nc(C)ccc4O)c3c2)c1` [Compound 93], the Activity was 8.7.

Compound `Cc1cccc(N(CCCCO)Cc2ccc3nc(NCCCN4CCOCC4)n(Cc4nc(C)ccc4O)c3c2)c1` [Compound 92] displayed an Activity of 8.8.

Take `Cc1ccc(O)c(Cn2c(NCCCN3CCOCC3)nc3ccc(CN(CCO)c4ccc(C#N)cc4)cc32)n1` [Compound 88]: the Activity was 9.1.

In turn, `Cc1ccc(O)c(Cn2c(NCCCN3CCOCC3)nc3ccc(CNc4cc(F)ccc4CCO)cc32)n1` [Compound 18] registered an Activity of 9.6.

In turn, `Cc1ccc(O)c(Cn2c(NCCCN3CCOCC3)nc3ccc(CN(CCO)c4ccccc4)cc32)n1` [Compound 97] had an Activity of 8.5.

The same experiment, now with this note: pEC50 (−log of EC50 when expressed in molar units), protection against RSV cytopathology.
As to `COc1ccc(C)nc1Cn1c(NCCCN2CCOCC2)nc2ccc(CNc3cccc(C)c3CO)cc21` [Compound 298], the Activity is 6.9.

As to `Cc1cccc(NCc2ccc3nc(NCCCN4CCOCC4)n(Cc4cccc5c4ncn5C)c3c2)c1` [Compound 295], the Activity is 6.9.

The compound `Cn1cnc2c(Cn3c(NCCCN4CCOCC4)nc4ccc(CNc5ccccc5CCC(N)=O)cc43)cccc21` [Compound 238] came in with an Activity of 7.9.

In turn, `Cc1cccc(NCc2ccc3nc(NCCCN4CCOCC4)n(Cc4nc(C)c(C)nc4C)c3c2)c1CCO` [Compound 282] displayed an Activity of 7.1.

For the compound `Cc1nc2c(nc1C)C(n1c(NCCCN3CCOCC3)nc3cc(CO)ccc31)CCC2` (centres unmarked) [Compound 336], the Activity amounted to 5.4.

In turn, `Cc1ccc(CCO)c(NCc2ccc3nc(NCCCN4CCOCC4)n(Cc4cccc5c4ncn5C)c3c2)c1` [Compound 229] showed an Activity of 8.4.

Take `Cc1cccc(NCc2ccc3c(c2)nc(NCCCN2CCOCC2)n3C2CCCc3nc(C)c(C)nc32)c1CO` (centres unmarked) [Compound 293]: the Activity is 7.

`Cc1nc(C)c(Cn2c(NCCCN3CCOCC3)nc3ccc(CNc4ccc(C(N)=O)cc4)cc32)nc1C` [Compound 291] had an Activity of 7.

Compound `Cc1ccc(C)c(NCc2ccc3c(c2)nc(NCCCN2CCOCC2)n3C2CCCc3nc(C)c(C)nc32)c1` (centres unmarked) [Compound 276] showed an Activity of 7.2.

Take `Cc1ccc(CCCO)c(NCc2ccc3c(c2)nc(NCCCN2CCOCC2)n3Cc2ncccc2O)c1` [Compound 301]: the Activity is reported as 6.8.

`Cc1cccc(NCc2ccc3nc(NCCCN4CCOCC4)n(Cc4nc(C)c(C)nc4C)c3c2)c1CO` [Compound 285] displayed an Activity of 7.1.

Compound `Cc1cc(C)cc(N(CCCC(N)=O)Cc2ccc3nc(NCCCN4CCOCC4)n(Cc4ccc(F)cc4)c3c2)c1` [Compound 315] gave an Activity of 6.5.

Turning to `Cn1cnc2c(Cn3c(NCCCN4CCOCC4)nc4ccc(CNc5ccc(C(N)=O)cc5)cc43)cccc21` [Compound 296], the Activity is 6.9.

The compound `Cc1ccc(NCc2ccc3nc(NCCCN4CCOCC4)n(Cc4nc(C)c(C)nc4C)c3c2)c(CO)c1` [Compound 284] gave an Activity of 7.1.

In turn, “4-{(3,5-Dimethyl-phenyl)-[3-(3-hydroxy-pyridin-2-ylmethyl)-2-(3-morpholin-4-yl-propylamino)-3H-benzoimidazol-5-ylmethyl]-amino}-butyramide [Compound 228]” had an Activity of 8.4.

`COc1ccc(C)nc1Cn1c(NCCCN2CCOCC2)nc2ccc(CNc3cccc(Br)c3)cc21` [Compound 297] showed an Activity of 6.9.

The compound `Cn1cnc2c(Cn3c(NCCCN4CCOCC4)nc4ccc(CNc5ccccc5CCCO)cc43)cccc21` [Compound 224] returned an Activity of 8.5.

In turn, `Cc1nc(C)c(Cn2c(NCCCN3CCOCC3)nc3ccc(CNc4ccccc4CCN4CCOCC4)cc32)nc1C` [Compound 299] returned an Activity of 6.9.

`Cc1nc(C)c(Cn2c(NCCCN3CCOCC3)nc3ccc(CNc4cccc(CCO)c4)cc32)nc1C` [Compound 300] returned an Activity of 6.9.

With `Cn1cnc2c(Cn3c(NCCCN4CCOCC4)nc4ccc(CNc5ccccc5CCO)cc43)cccc21` [Compound 237], the Activity was 7.9.

Compound `COc1ccc(C)nc1Cn1c(NCCCN2CCOCC2)nc2ccc(CO)cc21` [Compound 346] showed an Activity of 4.9.

Regarding `Cc1ccc(CCCO)c(NCc2ccc3c(c2)nc(NCCCN2CCOCC2)n3Cc2cccc3c2ncn3C)c1` [Compound 328], the Activity came to 5.8.

`Cc1cccc(Cn2c(NCCCN3CCOCC3)nc3ccc(CNc4cccc(C)c4CCO)cc32)n1` [Compound 335]: the Activity was found to be 5.5.

The values are drawn from US7449463B2, “Morpholinyl containing benzimidazoles as inhibitors of respiratory syncytial virus replication” (Tibotec Pharmaceuticals Ltd., priority 2003, dated 2008).
